Laboratory results reported in ChEMBL document CHEMBL3593212, “Synthesis and evaluation of novel 1H-pyrrolo[2,3-b]pyridine-5-carboxamide derivatives as potent and orally efficacious immunomodulators targeting JAK3” (Bioorg Med Chem, 2015).

What was measured:
[1] = AUC (0 to 24 hrs) in beagle dog at 3 mg/kg, po by LC/MS/MS method; format: ADME, organism-based, Canis lupus familiaris; set-up: time < 24 hr, dose 3 mg/kg, route oral; conditions: in vivo
[2] = Oral bioavailability in Sprague-Dawley rat at 3 mg/kg by LC/MS/MS method; format: ADME, organism-based; conditions: in vivo
[3] = target: Calcium/calmodulin-dependent protein kinase type II subunit alpha (Homo sapiens, UniProt Q9UQM7); test: Inhibition of CaMK2a (unknown origin)
[4] = Intrinsic clearance in rat liver microsomes at 0.2 uM in presence of NADPH generating system by LC/MS/MS method; format: ADME; conditions: read-out: CLH
[5] = Volume of distribution at steady state in cynomolgus monkey at 1 mg/kg, iv by LC/MS/MS method; format: ADME, organism-based, Macaca fascicularis; conditions: in vivo, read-out: Vdss
[6] = target: Tyrosine-protein kinase ITK/TSK (Homo sapiens, UniProt Q08881); test: Inhibition of ITK (unknown origin)
[7] = Tmax in beagle dog at 3 mg/kg, po by LC/MS/MS method; format: ADME, organism-based, Canis lupus familiaris; conditions: in vivo
[8] = Total clearance in Sprague-Dawley rat at 1 mg/kg, iv by LC/MS/MS method; format: ADME, organism-based; conditions: in vivo
[9] = target: Tyrosine-protein kinase CSK (Homo sapiens, UniProt P41240); test: Inhibition of CSK (unknown origin)
[10] = target: Aurora kinase C (Homo sapiens, UniProt Q9UQB9); test: Inhibition of AurC (unknown origin)
[11] = target: Protein kinase C alpha type (Homo sapiens, UniProt P17252); test: Inhibition of PKCalpha (unknown origin)
[12] = target: Tyrosine-protein kinase ZAP-70 (Homo sapiens, UniProt P43403); test: Inhibition of ZAP70 (unknown origin)
[13] = target: Tyrosine-protein kinase BTK (Homo sapiens, UniProt Q06187); test: Inhibition of BTK (unknown origin)
[14] = target: Focal adhesion kinase 1 (Homo sapiens, UniProt Q05397); test: Inhibition of FAK (unknown origin)
[15] = Half life in Sprague-Dawley rat at 1 mg/kg, iv by LC/MS/MS method; format: ADME, organism-based; conditions: in vivo
[16] = target: Cyclin-dependent kinase 2/cyclin A (Homo sapiens, UniProt P24941); test: Inhibition of CDK2/CycA (unknown origin); format: protein-complex assay
[17] = Volume of distribution at steady state in Sprague-Dawley rat at 1 mg/kg, iv by LC/MS/MS method; format: ADME, organism-based; conditions: in vivo, read-out: Vdss
[18] = Intrinsic clearance in beagle dog liver microsomes at 0.2 uM in presence of NADPH generating system by LC/MS/MS method; format: ADME, Canis lupus familiaris; conditions: read-out: CLH
[19] = target: Receptor tyrosine-protein kinase erbB-2 (Homo sapiens, UniProt P04626); test: Inhibition of HER2 (unknown origin)
[20] = target: Casein kinase I isoform delta (Homo sapiens, UniProt P48730); test: Inhibition of CK1delta (unknown origin)
[21] = target: Tyrosine-protein kinase ABL1 (Homo sapiens, UniProt P00519); test: Inhibition of ABL (unknown origin)
[22] = Cmax in beagle dog at 3 mg/kg, po by LC/MS/MS method; format: ADME, organism-based, Canis lupus familiaris; set-up: dose 3 mg/kg, route oral; conditions: in vivo
[23] = tested on: Rattus norvegicus; test: (§1) Inhibition of allograft rejection in Lewis rat vascularized heterotopic cardiac transplantation model using ACI rat as cardiac donor assessed as mean survival time by measuring cardiac allograft function by daily palpation for 28 days at 10 mg/kg, po administered beginning on day of operation once daily for 14 consecutive days (reference value: 5 days); format: functional
[24] = Volume of distribution at steady state in beagle dog at 1 mg/kg, iv by LC/MS/MS method; format: ADME, organism-based, Canis lupus familiaris; conditions: in vivo, read-out: Vdss
[25] = target: Mitogen-activated protein kinase kinase kinase 1 (Homo sapiens, UniProt Q13233); test: Inhibition of MEKK1 (unknown origin)
[26] = Cmax in Sprague-Dawley rat at 3 mg/kg, po by LC/MS/MS method; format: ADME, organism-based; set-up: dose 3 mg/kg, route oral; conditions: in vivo
[27] = Tmax in cynomolgus monkey at 3 mg/kg, po by LC/MS/MS method; format: ADME, organism-based, Macaca fascicularis; conditions: in vivo
[28] = Intrinsic clearance in cynomolgus monkey liver microsomes at 0.2 uM in presence of NADPH generating system by LC/MS/MS method; format: ADME, Macaca fascicularis; conditions: read-out: CLH
[29] = AUC (0 to 24 hrs) in Sprague-Dawley rat at 3 mg/kg, po by LC/MS/MS method; format: ADME, organism-based; set-up: dose 3 mg/kg, time < 24 hr, route oral; conditions: in vivo
[30] = tested on: Rattus norvegicus; test: as §1, with “10 and 20” for “10”; format: functional, organism-based
[31] = AUC (0 to 24 hrs) in Sprague-Dawley rat at 1 mg/kg, iv by LC/MS/MS method; format: ADME, organism-based; set-up: dose 1 mg/kg, time < 24 hr, route intravenous; conditions: in vivo
[32] = tested on: Rattus norvegicus; test: as §1, with “20” for “10”; format: functional
[33] = target: Dual specificity mitogen-activated protein kinase kinase 1 (Homo sapiens, UniProt Q02750); test: Inhibition of MEK1 (unknown origin)
[34] = target: Tyrosine-protein kinase Tec (Homo sapiens, UniProt P42680); test: Inhibition of TEC (unknown origin)
[35] = target: High affinity nerve growth factor receptor (Homo sapiens, UniProt P04629); test: Inhibition of TRKA (unknown origin)
[36] = target: RAF proto-oncogene serine/threonine-protein kinase (Homo sapiens, UniProt P04049); test: Inhibition of RAF1 (unknown origin)
[37] = target: Angiopoietin-1 receptor (Homo sapiens, UniProt Q02763); test: Inhibition of TIE2 (unknown origin)
[38] = Oral bioavailability in beagle dog at 3 mg/kg by LC/MS/MS method; format: ADME, organism-based, Canis lupus familiaris; conditions: in vivo
[39] = Effective permeability of the compound at pH 7.4 by PAMPA method; format: physicochemical; conditions: read-out: Peff
[40] = target: Interleukin-1 receptor-associated kinase 4 (Homo sapiens, UniProt Q9NWZ3); test: Inhibition of IRAK4 (unknown origin)
[41] = target: Epidermal growth factor receptor (Homo sapiens, UniProt P00533); test: Inhibition of EGFR (unknown origin)
[42] = target: Tyrosine-protein kinase JAK1 (Homo sapiens, UniProt P23458); test: Inhibition of human JAK1 kinase domain using biotin-Lyn-substrate-2 as substrate incubated for 1 hr by ELISA method
[43] = target: Mitogen-activated protein kinase 10 (Homo sapiens, UniProt P53779); test: Inhibition of JNK3 (unknown origin)
[44] = target: Tyrosine-protein kinase SYK (Homo sapiens, UniProt P43405); test: Inhibition of SYK (unknown origin)
[45] = Cmax in cynomolgus monkey at 3 mg/kg, po by LC/MS/MS method; format: ADME, organism-based, Macaca fascicularis; set-up: dose 3 mg/kg, route oral; conditions: in vivo
[46] = target: Voltage-gated inwardly rectifying potassium channel KCNH2 (Homo sapiens, UniProt Q12809)
Description: Inhibition of human ERG expressed in CHOK1 cells incubated for 10 mins by Rb efflux assay

[47] = target: Insulin-like growth factor 1 receptor (Homo sapiens, UniProt P08069); test: Inhibition of IGF1R (unknown origin)
[48] = Half life in beagle dog at 1 mg/kg, iv by LC/MS/MS method; format: ADME, organism-based, Canis lupus familiaris; conditions: in vivo
[49] = target: Ribosomal protein S6 kinase beta-1 (Homo sapiens, UniProt P23443); test: Inhibition of p70S6K (unknown origin)

Sequence of Focal adhesion kinase 1 (Q05397 whole entry): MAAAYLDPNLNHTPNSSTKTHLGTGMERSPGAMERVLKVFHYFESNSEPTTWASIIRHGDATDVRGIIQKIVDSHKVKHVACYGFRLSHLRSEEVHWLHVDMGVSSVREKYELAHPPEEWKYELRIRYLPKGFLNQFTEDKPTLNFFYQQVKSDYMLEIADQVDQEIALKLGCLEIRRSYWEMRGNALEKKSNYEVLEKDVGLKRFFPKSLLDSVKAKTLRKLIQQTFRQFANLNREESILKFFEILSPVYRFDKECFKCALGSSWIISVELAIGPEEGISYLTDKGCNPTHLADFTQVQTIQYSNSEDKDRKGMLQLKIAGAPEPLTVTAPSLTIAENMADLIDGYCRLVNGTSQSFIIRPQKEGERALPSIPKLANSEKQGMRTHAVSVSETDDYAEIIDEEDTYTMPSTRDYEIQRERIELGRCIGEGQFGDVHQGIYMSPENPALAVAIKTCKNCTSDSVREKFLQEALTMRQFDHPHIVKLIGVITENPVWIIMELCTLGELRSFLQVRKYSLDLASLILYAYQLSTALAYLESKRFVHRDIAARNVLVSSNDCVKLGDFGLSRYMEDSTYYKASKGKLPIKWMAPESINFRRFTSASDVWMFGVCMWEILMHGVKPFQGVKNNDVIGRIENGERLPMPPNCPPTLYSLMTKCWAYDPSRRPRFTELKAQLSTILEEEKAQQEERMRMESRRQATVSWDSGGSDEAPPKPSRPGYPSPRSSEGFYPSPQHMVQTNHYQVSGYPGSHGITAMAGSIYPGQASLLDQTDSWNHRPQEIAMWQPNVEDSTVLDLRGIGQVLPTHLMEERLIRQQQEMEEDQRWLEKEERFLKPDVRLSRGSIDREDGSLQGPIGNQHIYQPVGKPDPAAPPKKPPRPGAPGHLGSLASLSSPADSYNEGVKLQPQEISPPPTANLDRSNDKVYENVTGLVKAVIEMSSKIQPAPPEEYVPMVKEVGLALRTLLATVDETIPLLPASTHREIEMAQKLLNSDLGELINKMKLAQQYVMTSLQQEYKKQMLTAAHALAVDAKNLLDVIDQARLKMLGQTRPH
Sequence of Mitogen-activated protein kinase 10 (P53779 whole entry): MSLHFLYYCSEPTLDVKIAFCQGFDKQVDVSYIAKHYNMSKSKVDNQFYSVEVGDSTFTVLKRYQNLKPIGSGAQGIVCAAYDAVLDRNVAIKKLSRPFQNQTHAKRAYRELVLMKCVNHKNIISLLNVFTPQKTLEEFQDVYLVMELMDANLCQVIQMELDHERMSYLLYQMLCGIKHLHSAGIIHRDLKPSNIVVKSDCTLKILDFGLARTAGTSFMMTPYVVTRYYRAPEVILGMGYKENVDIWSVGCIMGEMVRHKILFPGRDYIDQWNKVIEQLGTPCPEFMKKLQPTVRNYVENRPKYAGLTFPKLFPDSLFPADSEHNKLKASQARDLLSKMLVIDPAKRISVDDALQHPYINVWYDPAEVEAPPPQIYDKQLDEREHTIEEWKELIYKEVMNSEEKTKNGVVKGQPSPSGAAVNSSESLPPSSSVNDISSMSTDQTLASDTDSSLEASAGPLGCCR
Sequence of Tyrosine-protein kinase ABL1 (P00519 whole entry): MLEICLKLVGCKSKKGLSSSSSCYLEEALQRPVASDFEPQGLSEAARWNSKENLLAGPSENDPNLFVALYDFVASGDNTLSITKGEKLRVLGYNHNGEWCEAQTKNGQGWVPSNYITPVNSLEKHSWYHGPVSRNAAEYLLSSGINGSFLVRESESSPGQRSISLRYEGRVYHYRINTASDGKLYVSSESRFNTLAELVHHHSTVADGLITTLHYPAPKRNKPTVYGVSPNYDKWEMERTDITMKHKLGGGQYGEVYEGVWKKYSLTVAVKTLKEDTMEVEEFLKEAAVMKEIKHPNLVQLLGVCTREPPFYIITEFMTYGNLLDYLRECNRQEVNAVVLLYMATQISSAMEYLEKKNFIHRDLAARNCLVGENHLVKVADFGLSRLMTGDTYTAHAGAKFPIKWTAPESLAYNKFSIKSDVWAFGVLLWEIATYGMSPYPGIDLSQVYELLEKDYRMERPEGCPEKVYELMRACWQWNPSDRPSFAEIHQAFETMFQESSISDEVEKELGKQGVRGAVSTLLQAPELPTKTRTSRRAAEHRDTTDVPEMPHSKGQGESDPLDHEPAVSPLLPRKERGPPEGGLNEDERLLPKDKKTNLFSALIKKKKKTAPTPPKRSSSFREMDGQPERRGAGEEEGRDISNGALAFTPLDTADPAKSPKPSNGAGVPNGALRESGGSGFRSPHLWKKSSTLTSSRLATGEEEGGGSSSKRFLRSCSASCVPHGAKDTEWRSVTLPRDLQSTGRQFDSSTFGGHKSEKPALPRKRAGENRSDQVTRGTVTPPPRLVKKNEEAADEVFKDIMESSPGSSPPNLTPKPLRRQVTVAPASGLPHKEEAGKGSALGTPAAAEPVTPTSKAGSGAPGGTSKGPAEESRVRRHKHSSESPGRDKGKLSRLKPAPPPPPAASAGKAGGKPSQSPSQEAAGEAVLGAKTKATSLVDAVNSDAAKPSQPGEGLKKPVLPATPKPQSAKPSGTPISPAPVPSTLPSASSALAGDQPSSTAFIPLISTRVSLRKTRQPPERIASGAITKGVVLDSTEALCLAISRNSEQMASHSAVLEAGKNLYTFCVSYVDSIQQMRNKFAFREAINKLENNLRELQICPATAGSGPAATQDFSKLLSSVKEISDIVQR
Sequence of High affinity nerve growth factor receptor (P04629 whole entry): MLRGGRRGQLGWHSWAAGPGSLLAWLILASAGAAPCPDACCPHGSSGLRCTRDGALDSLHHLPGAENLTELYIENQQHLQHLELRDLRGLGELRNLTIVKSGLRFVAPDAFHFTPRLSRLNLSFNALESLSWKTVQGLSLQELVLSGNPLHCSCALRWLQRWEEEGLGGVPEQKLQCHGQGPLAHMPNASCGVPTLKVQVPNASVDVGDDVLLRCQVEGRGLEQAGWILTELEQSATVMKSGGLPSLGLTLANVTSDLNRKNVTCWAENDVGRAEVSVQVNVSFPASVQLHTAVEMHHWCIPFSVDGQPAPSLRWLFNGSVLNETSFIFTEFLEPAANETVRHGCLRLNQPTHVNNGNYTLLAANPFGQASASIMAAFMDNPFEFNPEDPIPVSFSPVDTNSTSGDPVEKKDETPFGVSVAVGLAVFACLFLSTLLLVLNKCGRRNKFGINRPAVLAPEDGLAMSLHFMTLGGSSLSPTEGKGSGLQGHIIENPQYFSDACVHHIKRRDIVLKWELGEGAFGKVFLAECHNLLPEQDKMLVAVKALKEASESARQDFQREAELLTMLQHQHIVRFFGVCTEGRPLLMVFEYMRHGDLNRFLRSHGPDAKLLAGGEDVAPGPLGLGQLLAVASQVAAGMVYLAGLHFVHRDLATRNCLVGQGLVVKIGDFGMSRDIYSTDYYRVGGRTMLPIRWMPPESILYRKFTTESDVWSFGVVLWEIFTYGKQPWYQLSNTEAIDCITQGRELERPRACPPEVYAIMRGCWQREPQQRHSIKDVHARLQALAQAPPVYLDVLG
Sequence of Tyrosine-protein kinase ZAP-70 (P43403 whole entry): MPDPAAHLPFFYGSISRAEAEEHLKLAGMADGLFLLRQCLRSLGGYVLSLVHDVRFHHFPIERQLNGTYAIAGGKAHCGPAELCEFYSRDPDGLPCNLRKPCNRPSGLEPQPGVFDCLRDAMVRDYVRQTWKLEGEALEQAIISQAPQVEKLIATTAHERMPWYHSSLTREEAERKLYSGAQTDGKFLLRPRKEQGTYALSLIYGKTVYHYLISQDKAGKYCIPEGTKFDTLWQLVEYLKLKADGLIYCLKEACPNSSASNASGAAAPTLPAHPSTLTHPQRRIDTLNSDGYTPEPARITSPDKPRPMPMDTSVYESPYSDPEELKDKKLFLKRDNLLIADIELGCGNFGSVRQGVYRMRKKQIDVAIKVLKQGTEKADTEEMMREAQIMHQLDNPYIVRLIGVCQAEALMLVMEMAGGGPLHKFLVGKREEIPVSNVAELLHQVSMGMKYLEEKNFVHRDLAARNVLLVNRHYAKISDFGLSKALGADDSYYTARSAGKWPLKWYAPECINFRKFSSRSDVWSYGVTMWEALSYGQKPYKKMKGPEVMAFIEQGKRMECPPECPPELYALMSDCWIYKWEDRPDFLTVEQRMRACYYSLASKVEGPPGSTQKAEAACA
Sequence of Tyrosine-protein kinase CSK (P41240 whole entry): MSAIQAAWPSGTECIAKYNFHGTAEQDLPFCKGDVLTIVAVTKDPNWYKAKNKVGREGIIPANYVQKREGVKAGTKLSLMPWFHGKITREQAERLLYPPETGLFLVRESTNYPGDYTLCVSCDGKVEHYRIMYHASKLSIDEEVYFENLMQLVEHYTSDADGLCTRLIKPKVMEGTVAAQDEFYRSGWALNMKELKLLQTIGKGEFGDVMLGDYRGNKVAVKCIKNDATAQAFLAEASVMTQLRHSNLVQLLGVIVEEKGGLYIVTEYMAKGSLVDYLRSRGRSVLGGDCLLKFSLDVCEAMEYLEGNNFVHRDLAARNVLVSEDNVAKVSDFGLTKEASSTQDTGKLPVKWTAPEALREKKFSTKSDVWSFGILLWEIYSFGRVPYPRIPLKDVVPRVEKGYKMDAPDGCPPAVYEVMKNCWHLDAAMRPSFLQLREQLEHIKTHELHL
Sequence of Interleukin-1 receptor-associated kinase 4 (Q9NWZ3 whole entry): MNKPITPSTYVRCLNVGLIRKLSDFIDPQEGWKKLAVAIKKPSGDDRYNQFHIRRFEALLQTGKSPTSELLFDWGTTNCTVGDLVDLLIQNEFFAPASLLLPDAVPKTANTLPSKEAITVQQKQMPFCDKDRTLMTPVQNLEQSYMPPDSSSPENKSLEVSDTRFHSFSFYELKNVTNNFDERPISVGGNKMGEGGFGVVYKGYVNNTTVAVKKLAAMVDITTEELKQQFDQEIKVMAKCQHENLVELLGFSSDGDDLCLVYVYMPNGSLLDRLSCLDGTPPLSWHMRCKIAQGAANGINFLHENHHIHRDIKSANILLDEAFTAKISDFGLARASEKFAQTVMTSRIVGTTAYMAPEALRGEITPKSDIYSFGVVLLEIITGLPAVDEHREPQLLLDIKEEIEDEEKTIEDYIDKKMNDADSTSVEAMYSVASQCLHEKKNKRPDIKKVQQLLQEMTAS

Structure (SMILES): N#Cc1ccc(N2CC[C@@H](Nc3c(C(N)=O)cnc4[nH]ccc34)[C@@H](F)C2)nc1
- AUC(0-t) at 24 h [1]: 8300 ng·h/mL
- bioavailability [2]: 70.7%
- IC50 [3]: 1 µM
- CLint scaled at 0.2 µM [4]: 27.5 mL/min/kg
- Vd [5]: 1.5 L/kg
- IC50 [6]: > 1 µM
- Tmax [7]: 2.7 h
- clearance [8]: 5.3 mL/min/kg
- IC50 [9]: > 1 µM
- IC50 [10]: > 1 µM
- IC50 [11]: 0.13 µM
- IC50 [12]: > 1 µM
- IC50 [13]: > 1 µM
- IC50 [14]: > 1 µM
- half-life [15]: 3 h
- IC50 [16]: 0.59 µM
- Vd [17]: 1.1 L/kg
- CLint scaled at 0.2 µM [18]: 18.8 mL/min/kg
- IC50 [19]: > 1 µM
- IC50 [20]: > 1 µM
- IC50 [21]: > 1 µM
- Cmax [22]: 666 ng/mL
- MST [23]: 11.5 days
- Vd [24]: 1 L/kg
- IC50 [25]: > 1 µM
- Cmax [26]: 633 ng/mL
- Tmax [27]: 5.3 h
- CLint scaled at 0.2 µM [28]: 9.9 mL/min/kg
- AUC(0-t) at 24 h [29]: 6780 ng·h/mL
- inhibition [30]: Dose-dependent effect
- AUC(0-t) at 24 h [31]: 3200 ng·h/mL
- MST [32]: 22 days
- IC50 [33]: > 1 µM
- IC50 [34]: > 1 µM
- IC50 [35]: 0.47 µM
- IC50 [36]: > 1 µM
- IC50 [37]: > 1 µM
- bioavailability [38]: 49.1%
- Papp [39]: 9 ×10⁻⁶ cm/s
- IC50 [40]: > 1 µM
- IC50 [41]: > 1 µM
- IC50 [42]: 0.0041 µM
- IC50 [43]: 0.56 µM
- IC50 [44]: > 1 µM
- Cmax [45]: 684 ng/mL
- IC50 [46]: > 100 µM
- IC50 [47]: > 1 µM
- half-life [48]: 4.2 h
- IC50 [49]: > 1 µM
